Data taken from ChEMBL document CHEMBL4020734, “Identification of a novel fluoropyrrole derivative as a potassium-competitive acid blocker with long duration of action” (Bioorg Med Chem, 2017).
Calls of active or inactive are those of the source. The calls are words filed in the database; no cut-off is given here.

Tests used:
[1] = Inhibition of H+/K+-ATPase in porcine stomach gastric mucosal microsomes assessed as reduction in inorganic phosphate production using ATP as substrate preincubated for 30 mins followed by ATP addition in presence of KCl by malachite green reagent based colorimetric assay; set-up: species or system Sus scrofa
[2] = Lipophilicity, log D of the compound at pH 7.4 by HPLC analysis; assay type: physicochemical; details: buffer
[3] = Cytotoxicity against human HepG2 cells assessed as cellular ATP level at 30 uM after 1 day by ATPLite assay relative to control; assay type: cell-based; details: read-out: Activity
Rattus norvegicus [4] = test: Inhibition of histamine-induced acid secretion in Jcl:SD rat gastric at 1 mg/kg, iv pretreated for 3 mins followed by histamine.2HCl treatment measured after 3 hrs by titration method; assay type: functional
[5] = Dissociation constant, pKa of the compound; assay type: physicochemical
[6] = Cytotoxicity against human HepG2 cells assessed as cellular ATP level at 100 uM after 1 day by ATPLite assay relative to control; assay type: cell-based; details: read-out: Activity
hERG (KCNH2) = hERG (KCNH2) (Homo sapiens, UniProt Q12809); test: Inhibition of human ERG expressed in HEK cells at 10 uM at -75 mV holding potential by Whole-cell voltage clamp assay relative to control; assay type: cell-based; details: HEK cells expressing human ERG
Sequence of hERG (KCNH2) (Q12809 whole entry): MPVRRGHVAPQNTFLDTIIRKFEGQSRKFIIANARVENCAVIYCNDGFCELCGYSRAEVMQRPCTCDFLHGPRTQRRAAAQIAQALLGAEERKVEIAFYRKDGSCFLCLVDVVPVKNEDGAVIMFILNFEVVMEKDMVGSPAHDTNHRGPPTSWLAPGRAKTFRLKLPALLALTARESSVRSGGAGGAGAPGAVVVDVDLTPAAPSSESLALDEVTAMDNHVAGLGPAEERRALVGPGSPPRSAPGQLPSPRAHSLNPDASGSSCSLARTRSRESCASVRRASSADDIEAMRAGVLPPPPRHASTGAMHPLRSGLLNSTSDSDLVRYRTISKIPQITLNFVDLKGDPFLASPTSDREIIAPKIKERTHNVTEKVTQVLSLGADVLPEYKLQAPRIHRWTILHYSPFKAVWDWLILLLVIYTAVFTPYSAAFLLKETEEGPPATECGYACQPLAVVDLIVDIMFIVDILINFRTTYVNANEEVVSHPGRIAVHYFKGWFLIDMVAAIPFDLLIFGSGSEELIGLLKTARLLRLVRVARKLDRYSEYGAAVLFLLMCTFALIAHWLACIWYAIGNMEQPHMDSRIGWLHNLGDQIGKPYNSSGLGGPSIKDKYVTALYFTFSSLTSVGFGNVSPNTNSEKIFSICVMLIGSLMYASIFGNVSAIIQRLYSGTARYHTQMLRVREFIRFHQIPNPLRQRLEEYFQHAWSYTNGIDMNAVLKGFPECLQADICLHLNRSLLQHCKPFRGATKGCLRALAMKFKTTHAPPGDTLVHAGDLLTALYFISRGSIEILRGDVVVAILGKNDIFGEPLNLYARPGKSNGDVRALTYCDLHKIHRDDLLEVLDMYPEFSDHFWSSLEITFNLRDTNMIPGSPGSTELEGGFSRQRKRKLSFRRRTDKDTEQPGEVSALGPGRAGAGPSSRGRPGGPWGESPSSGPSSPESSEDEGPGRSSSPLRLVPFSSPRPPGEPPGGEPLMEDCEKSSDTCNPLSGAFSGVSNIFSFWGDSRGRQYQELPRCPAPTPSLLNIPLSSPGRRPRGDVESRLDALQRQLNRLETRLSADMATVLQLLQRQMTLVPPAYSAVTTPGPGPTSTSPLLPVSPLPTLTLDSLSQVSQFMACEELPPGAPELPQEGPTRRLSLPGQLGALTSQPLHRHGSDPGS

Rattus norvegicus [7] = test: Inhibition of histamine-induced acid secretion in Jcl:SD rat gastric assessed as pH of gastric perfusate at 3 mg/kg, iv pretreated for 3 mins followed by histamine.2HCl treatment measured in early time point by glass electrode method (reference value: 2); assay type: functional
Canis familiaris [8] = test: Inhibition of histamine-induced acid secretion in dog heidenhain pouch at 3 mg/kg, po treated 1 day after and 1 to 48 hrs before histamine.2HCl treatment measured 30 mins post histamine challenge by titration method; assay type: functional, organism-based; details: Canis lupus familiaris
Rattus norvegicus [9] = test: Inhibition of histamine-induced acid secretion in Jcl:SD rat gastric assessed as increase in pH of gastric perfusate at 3 mg/kg, iv pretreated for 3 mins followed by histamine.2HCl treatment measured up to 5 hrs by glass electrode method; assay type: functional, organism-based
[10] = Inhibition of CYP450 (unknown origin); assay type: ADME; details: human
Rattus norvegicus [11] = test: Inhibition of histamine-induced acid secretion in Jcl:SD rat gastric assessed as pH of gastric perfusate at 1 mg/kg, iv pretreated for 3 mins followed by histamine.2HCl treatment measured after 150 to 180 mins by glass electrode method (reference value: 2); assay type: functional
[12] = Effective permeability of the compound at 10 uM at pH 7.4 after 3 hrs by PAMPA; assay type: physicochemical; details: read-out: Peff
[13] = Effective permeability of the compound at 10 uM at pH 5 after 3 hrs by PAMPA; assay type: physicochemical; details: read-out: Peff
Rattus norvegicus [14] = test: Inhibition of histamine-induced acid secretion in po dosed rat gastric pretreated for 1 hr followed by histamine.2HCl treatment measured after 3 hrs by titration method; assay type: functional, organism-based
Canis familiaris [15] = test: Inhibition of histamine-induced acid secretion in dog heidenhain pouch at 0.8 mg/kg, po treated 1 day after and 1 to 48 hrs before histamine.2HCl treatment measured 30 mins post histamine challenge by titration method; assay type: functional; details: Canis lupus familiaris
[16] = Stability of the compound under acidic condition; assay type: physicochemical
Rattus norvegicus [17] = test: Inhibition of histamine-induced acid secretion in Jcl:SD rat gastric assessed as pH of gastric perfusate at 0.7 mg/kg, iv pretreated for 3 mins followed by histamine.2HCl treatment measured after 5 hrs by glass electrode method (reference value: 2); assay type: functional
[18] = Metabolic stability of the compound
[19] = Solubility of the compound; assay type: physicochemical
Rattus norvegicus [20] = test: Inhibition of histamine-induced acid secretion in Jcl:SD rat gastric assessed as pH of gastric perfusate at 1 mg/kg, iv pretreated for 3 mins followed by histamine.2HCl treatment measured up to 2 hrs by glass electrode method (reference value: 2); assay type: functional
Rattus norvegicus [21] = test: Inhibition of histamine-induced acid secretion in Jcl:SD rat gastric assessed as increase in pH of gastric perfusate at 1 mg/kg, iv pretreated for 3 mins followed by histamine.2HCl treatment measured after 2 hrs by glass electrode method; assay type: functional, organism-based
Canis familiaris [22] = test: Inhibition of histamine-induced acid secretion in dog heidenhain pouch at 1 mg/kg, po treated 1 day after and 1 to 48 hrs before histamine.2HCl treatment measured 30 mins post histamine challenge by titration method; assay type: functional, organism-based; details: Canis lupus familiaris

| Structure (SMILES) | IC50 [1] | logD [2] | inhibition in vivo at 1 mg/kg (Rattus norvegicus [4]) | viability at 24 h, 100 µM [6] | inhibition at 10 µM (hERG (KCNH2)) | also measured |
| --- | --- | --- | --- | --- | --- | --- |
| CNCc1cc(-c2ccccc2F)n(S(=O)(=O)c2ccc(C)cc2)c1 | 34 nM | 1.56 | 91% |  |  | viability at 24 h, 30 µM [3]: 8%; pKa [5]: 9.48 |
| CNCc1cc(-c2ccc(F)cc2)n(S(=O)(=O)c2ccc(C)cc2)c1 | 90 nM | 2.05 | 86% |  |  | viability at 24 h, 30 µM [3]: 0.4%; pKa [5]: 9.4 |
| CNCc1cc(-c2ccccn2)n(S(=O)(=O)c2ccccc2)c1 | 120 nM | 0.28 |  | 91.2% | 48% |  |
| Cc1c(OCC(F)(F)F)ccnc1C[S+]([O-])c1nc2ccccc2[nH]1 (stereo not drawn) [LANSOPRAZOLE] |  |  |  |  |  | pH (Rattus norvegicus [7]): <5; inhibition (Canis familiaris [8]): Active; inhibition (Rattus norvegicus [9]): inactive; inhibition (INH) [10]: Active |
| CNCc1cc(-c2cccnc2F)n(S(=O)(=O)c2cccnc2)c1 | 210 nM | -0.85 | 96% | 85.7% | 4.4% | pH (Rattus norvegicus [11]): 5 |
| CNCc1cc(-c2cncnc2)n(S(=O)(=O)c2ccccc2)c1 | 410 nM | -0.4 |  | 97.5% | 24.2% |  |
| CNCc1cc(-c2cccnc2F)n(S(=O)(=O)c2cccs2)c1 | 32 nM | -0.69 | 96% | 74.9% | 63% |  |
| CNCc1cc(-c2cnccc2C)n(S(=O)(=O)c2cccnc2)c1 | 230 nM | -0.51 | -54% | 86% | 8.3% |  |
| CNCc1cc(-c2cccc(F)c2)n(S(=O)(=O)c2ccc(C)cc2)c1 | 19 nM | 1.98 | 77% |  |  | viability at 24 h, 30 µM [3]: 0.6%; pKa [5]: 9.31 |
| CNCc1cc(-c2cccnc2F)n(S(=O)(=O)c2ccoc2)c1 | 92 nM | -1.31 | 82% | 77.4% | 59.3% |  |
| CNCc1cn(S(=O)(=O)c2cccnc2)c(-c2cccnc2F)c1F | 49 nM | 0.04 | 98% | 100% | 39.8% | Papp at 3 h, 10 µM [12]: 25.6 ×10⁻⁶ cm/s; Papp at 3 h, 10 µM [13]: 4.7 ×10⁻⁶ cm/s; inhibition (Rattus norvegicus [14]): Dose-dependent effect; inhibition in vivo at 0.8 mg/kg (Canis familiaris [15]): 100%; inhibition (INH) [10]: Not Active; Stability [16]: Stable; pH (Rattus norvegicus [17]): 6; pKa [5]: 8.54 |
| CNCc1cn(S(=O)(=O)c2cccnc2)c(-c2cccnc2F)c1C | 220 nM | -0.4 | 93% | 47.1% | 30.3% |  |
| CNCc1cn(S(=O)(=O)c2cccnc2)c(-c2cccnc2F)c1Cl | 99 nM | 0.48 | 95% | 64.5% | 41.3% |  |
| CNCc1cc(-c2cccnc2F)n(S(=O)(=O)c2ccco2)c1 | 59 nM | -1.15 | 74% | 68.7% | 49.1% |  |
| CNCc1cc(-c2cccnc2Cl)n(S(=O)(=O)c2ccccc2)c1 | 43 nM | -0.1 | 99% | 76.3% | 40.9% |  |
| CNCc1cc(-c2ccccc2C(F)(F)F)n(S(=O)(=O)c2ccc(C)cc2)c1 | 88 nM | 1.94 | 86% |  |  | viability at 24 h, 30 µM [3]: 0.5% |
| CNCc1cc(-c2cccnc2C#N)n(S(=O)(=O)c2cccnc2)c1 | 530 nM | -1.29 | 48% | 85.3% | 1.9% |  |
| CNCc1cc(-c2cccnc2F)n(S(=O)(=O)c2ccc(OC)nc2)c1 | 40 nM | 0.24 | 97% | 47.6% | 33.1% |  |

| Structure (SMILES) | IC50 [1] | logD [2] | inhibition in vivo at 1 mg/kg (Rattus norvegicus [4]) | viability at 24 h, 100 µM [6] | inhibition at 10 µM (hERG (KCNH2)) | also measured |
| --- | --- | --- | --- | --- | --- | --- |
| CNCc1cc(-c2ccccc2F)n(S(=O)(=O)c2cccnc2)c1 [VONOPRAZAN] |  | 0.39 |  |  |  | pKa [5]: 9.3 |
| CNCc1cc(-c2ccncc2F)n(S(=O)(=O)c2cccnc2)c1 | 290 nM | -0.34 | 48% | 78.8% | 18.8% |  |
| CNCc1cc(-c2cccnc2F)n(S(=O)(=O)c2cccc(F)c2)c1 | 33 nM | 0.23 | 99% | 65.9% | 56.2% |  |
| CNCc1cc(-c2cccnc2F)n(S(=O)(=O)c2cccc(C#N)c2)c1 | 89 nM | -0.36 | 99% | 46.7% | 46.7% |  |
| CNCc1cc(-c2ccccc2)n(S(=O)(=O)c2cccnc2)c1 |  | 0.73 |  |  |  |  |
| CNCc1cc(-c2cccnc2C)n(S(=O)(=O)c2cccnc2)c1 | 250 nM | 0.06 | -41% | 107% |  |  |
| CNCc1cc(-c2ccccc2)n(S(=O)(=O)c2ccccc2)c1 | 9.4 nM | 1.44 | 96% |  | 87.5% | viability at 24 h, 30 µM [3]: 53.8% |
| CNCc1cc(-c2ccccc2)n(S(=O)(=O)c2ccc(C)cc2)c1 | 46 to 55 nM | 1.83 | 66% |  |  | viability at 24 h, 30 µM [3]: 38.6%; pKa [5]: 9.49 |
| CNCc1cc(-c2ncccc2C)n(S(=O)(=O)c2cccnc2)c1 | 1300 nM | 0.53 | 5% | 88.7% |  |  |
| CNCc1cc(-c2cccnc2F)n(S(=O)(=O)c2ccccc2)c1 | 26 nM | -0.09 | 99% | 59.9% | 57% |  |
| CNCc1cc(-c2cccnc2Cl)n(S(=O)(=O)c2cccnc2)c1 | 120 nM | -0.5 | 92% | 82.9% | 10.6% |  |
| CNCc1cc(-c2cccnc2)n(S(=O)(=O)c2ccccc2)c1 | 130 nM | 0.08 | 4% | 95% | 43.3% | inhibition (INH) [10]: Not Active; Stability [18]: Stable; solubility [19]: Soluble |
| CNCc1cc(-c2cccnc2C#N)n(S(=O)(=O)c2ccccc2)c1 | 120 nM | -0.32 | 99% | 82.1% | 32.9% | pH (Rattus norvegicus [20]): >5; inhibition (Rattus norvegicus [21]): inactive |
| CNCc1cc(-c2cccnc2F)n(S(=O)(=O)c2ccccn2)c1 | 120 nM | 0.05 | 81% | 78.6% |  |  |
| CNCc1cc(-c2cccnc2F)n(S(=O)(=O)c2ccsc2)c1 | 32 nM | -0.83 | 98% | 64% | 60% |  |
| CNCc1cc(-c2ccccc2)n(S(=O)(=O)c2ccc(OC)cc2)c1 | 30 nM | 1.54 | 95% |  | 89.1% | Papp at 3 h, 10 µM [12]: 24.6 ×10⁻⁶ cm/s; Papp at 3 h, 10 µM [13]: 19.8 ×10⁻⁶ cm/s; inhibition (Canis familiaris [22]): Active; viability at 24 h, 30 µM [3]: 22.1%; pKa [5]: 9.48 |
| CNCc1cc(-c2cccnc2F)n(S(=O)(=O)c2cccc(OC)c2)c1 | 28 nM | 0.1 | 92% | 30.6% | 72.8% |  |
| CNCc1cc(-c2ccccc2C)n(S(=O)(=O)c2ccc(C)cc2)c1 | 62 nM | 2.12 | 92% |  |  | viability at 24 h, 30 µM [3]: 0.3% |
